Peptide text beside a SMILES is read from it.
Tests used:
Assay in all cases: microbe, parasite or virus in culture
Type in all cases: cell-based
[1] = test system: vancomycin / teicoplanin resistant enterococci
[2] = test system: inherently resistant microorganisms
S. aureus = S. aureus SA25
bacterial isolates = settings: for Peptide MIC Alone: Tobramycin section
[3] = test system: microorganisms with acquired resistance; settings: for Peptide MIC: in µg/mL
[4] = S. aureus SA014 (also SA014 MRSA)
[5] = S. aureus SA025 (also SA025 MRSA)

SMILES: CC[C@H](C)[C@H](NC(=O)[C@H](C)NC(=O)[C@@H]1CCCN1C(=O)CNC(=O)[C@H](C)NC(=O)[C@@H](NC(=O)[C@H](CCCCN)NC(=O)[C@H](CC(C)C)NC(=O)CNC(=O)[C@H](CO)NC(=O)[C@H](CC(C)C)NC(=O)[C@@H](NC(=O)[C@H](CCCNC(=N)N)NC(=O)[C@H](CCCNC(=N)N)NC(=O)[C@H](Cc1c[nH]c2ccccc12)NC(=O)[C@H](Cc1c[nH]c2ccccc12)NC(=O)[C@H](CCCCN)NC(=O)[C@@H](N)CCCCN)C(C)C)[C@@H](C)O)C(=O)N[C@@H](CCC(N)=O)C(=O)N[C@@H](CO)C(=O)N[C@H](C(=O)N[C@@H](CC(C)C)C(=O)N[C@@H](CC(N)=O)C(=O)N[C@@H](CCCCN)C(=O)O)C(C)C [MBI 21A1] (H-KKWWRRVLSGLKTAGPAIQSVLNK-OH; N-terminus and C-terminus assumed)
- Peptide MIC + Vancomycin ([1]; E. faecalis EFS012): 2 µg/mL
- Vancomycin MIC + Peptide ([1]; E. faecalis EFS012): 4 µg/mL
- Peptide MIC + Vancomycin ([1]; E. faecalis EFS013): 2 µg/mL
- Vancomycin MIC + Peptide ([1]; E. faecalis EFS013): 4 µg/mL
- Vancomycin MIC + Peptide ([1]; in combination with the labelled peptide, E. faecium EFM010): 4 µg/mL
- Peptide MIC + Vancomycin ([1]; in combination with vancomycin, E. faecium EFM010): 16 µg/mL
- Peptide MIC Alone ([2]; E. coli, Mupirocin section): 2 µg/mL
- FIC ([2]; peptide + Tobramycin, S. aureus): 0.50
- Ciprofloxacin MIC + Peptide (S. aureus): 0.125 µg/mL
- Peptide MIC + Ciprofloxacin (S. aureus): 4 µg/mL
- Peptide MIC + Tobramycin (bacterial isolates; B. cepacia BC001): 0.25 µg/mL
- Tobramycin MIC + Peptide (bacterial isolates; B. cepacia BC001): 32 µg/mL
- Peptide MIC Alone (bacterial isolates; B. cepacia BC001): >128 µg/mL
- Mupirocin MIC + Peptide (bacterial isolates; E. coli ECO3): 3 µg/mL
- Peptide MIC + Mupirocin (bacterial isolates; E. coli ECO3): 2 µg/mL
- Mupirocin MIC + Peptide (bacterial isolates; E. coli SBECO2): 30 µg/mL
- Peptide MIC + Mupirocin (bacterial isolates; E. coli SBECO2): 2 µg/mL
- Peptide MIC + Vancomycin (bacterial isolates; E. faecalis EFS007): 1 µg/mL
- Vancomycin MIC + Peptide (bacterial isolates; E. faecalis EFS007): 1 µg/mL
- Peptide MIC + Vancomycin (bacterial isolates; E. faecalis EFS012): 1 µg/mL
- Vancomycin MIC + Peptide (bacterial isolates; E. faecalis EFS012): 16 µg/mL
- Peptide MIC + Vancomycin (bacterial isolates; E. faecalis EFS013): 1 µg/mL
- Vancomycin MIC + Peptide (bacterial isolates; E. faecalis EFS013): 32 µg/mL
- Peptide MIC + Vancomycin (bacterial isolates; E. faecium EFM010): 2 µg/mL
- Vancomycin MIC + Peptide (bacterial isolates; E. faecium EFM010): 32 µg/mL
- Ciprofloxacin MIC + Peptide (bacterial isolates; P. aeruginosa PA4): 0.125 µg/mL
- Peptide MIC + Ciprofloxacin (bacterial isolates; P. aeruginosa PA4): 32 µg/mL
- Peptide MIC + Tobramycin (bacterial isolates; P. aeruginosa PA022): 0.125 µg/mL
- Tobramycin MIC + Peptide (bacterial isolates; P. aeruginosa PA022): 4 µg/mL
- Peptide MIC Alone (bacterial isolates; P. aeruginosa PA022): 4 µg/mL
- Peptide MIC + Tobramycin (bacterial isolates; P. aeruginosa PA026): 0.125 µg/mL
- Tobramycin MIC + Peptide (bacterial isolates; P. aeruginosa PA026): 4 µg/mL
- Peptide MIC Alone (bacterial isolates; P. aeruginosa PA026): 16 µg/mL
- Ciprofloxacin MIC + Peptide (bacterial isolates; P. aeruginosa PA41): 1 µg/mL
- Peptide MIC + Ciprofloxacin (bacterial isolates; P. aeruginosa PA41): 4 µg/mL
- Mupirocin MIC + Peptide (bacterial isolates; P. aeruginosa SBPA1): 30 µg/mL
- Peptide MIC + Mupirocin (bacterial isolates; P. aeruginosa SBPA1): 32 µg/mL
- Peptide MIC + Tobramycin (bacterial isolates; [4]): 16 µg/mL
- Tobramycin MIC + Peptide (bacterial isolates; [4]): 0.125 µg/mL
- Peptide MIC Alone (bacterial isolates; [4]): 32 µg/mL
- Ciprofloxacin MIC + Peptide (bacterial isolates; S. aureus SA25): 0.125 µg/mL
- Peptide MIC + Ciprofloxacin (bacterial isolates; S. aureus SA25): 4 µg/mL
- Peptide MIC + Tobramycin (bacterial isolates; [5]): 1 µg/mL
- Tobramycin MIC + Peptide (bacterial isolates; [5]): 0.125 µg/mL
- Peptide MIC Alone (bacterial isolates; [5]): 2 µg/mL
- Ciprofloxacin MIC + Peptide (bacterial isolates; S. aureus SA93): 8 µg/mL
- Peptide MIC + Ciprofloxacin (bacterial isolates; S. aureus SA93): 1 µg/mL
- Peptide MIC + Tobramycin (bacterial isolates; S. haemolyticus SHA001): 4 µg/mL
- Tobramycin MIC + Peptide (bacterial isolates; S. haemolyticus SHA001): 0.5 µg/mL
- Peptide MIC Alone (bacterial isolates; S. haemolyticus SHA001): 16 µg/mL
- Peptide MIC + Tobramycin (bacterial isolates; S. haemolyticus SHA005): 4 µg/mL
- Tobramycin MIC + Peptide (bacterial isolates; S. haemolyticus SHA005): 1 µg/mL
- Peptide MIC Alone (bacterial isolates; S. haemolyticus SHA005): 32 µg/mL
- Peptide MIC + Tobramycin (bacterial isolates; S. maltophilia SMA029): 32 µg/mL
- Tobramycin MIC + Peptide (bacterial isolates; S. maltophilia SMA029): 4 µg/mL
- Peptide MIC Alone (bacterial isolates; S. maltophilia SMA029): 128 µg/mL
- Peptide MIC + Tobramycin (bacterial isolates; S. maltophilia SMA030): 32 µg/mL
- Tobramycin MIC + Peptide (bacterial isolates; S. maltophilia SMA030): 4 µg/mL
- Peptide MIC Alone (bacterial isolates; S. maltophilia SMA030): >128 µg/mL
- FIC (bacterial isolates; peptide + Ciprofloxacin, P. aeruginosa PA4): 0.50
- FIC (bacterial isolates; peptide + Ciprofloxacin, P. aeruginosa PA41): 0.50
- FIC (bacterial isolates; peptide + Ciprofloxacin, S. aureus SA25): 0.16
- FIC (bacterial isolates; peptide + Ciprofloxacin, S. aureus SA93): 0.50
- FIC (bacterial isolates; peptide + Mupirocin, E. coli ECO3): 0.28
- FIC (bacterial isolates; peptide + Mupirocin, E. coli SBECO2): 0.28
- FIC (bacterial isolates; peptide + Mupirocin, P. aeruginosa SBPA1): 0.53
- FIC (bacterial isolates; peptide + Tobramycin, B. cepacia BC001): 0.25
- FIC (bacterial isolates; peptide + Tobramycin, P. aeruginosa PA022): 0.53
- FIC (bacterial isolates; peptide + Tobramycin, P. aeruginosa PA026): 0.51
- FIC (bacterial isolates; peptide + Tobramycin, S. aureus SA014 (also SA014 MRSA)): 0.50
- FIC (bacterial isolates; peptide + Tobramycin, S. aureus SA025 (also SA025 MRSA)): 0.50
- FIC (bacterial isolates; peptide + Tobramycin, S. haemolyticus SHA001): 0.50
- FIC (bacterial isolates; peptide + Tobramycin, S. haemolyticus SHA005): 0.38
- FIC (bacterial isolates; peptide + Tobramycin, S. maltophilia SMA029): 0.28
- FIC (bacterial isolates; peptide + Tobramycin, S. maltophilia SMA030): 0.16
- FIC (bacterial isolates; peptide + Vancomycin, E. faecalis EFS007): 0.56
- FIC (bacterial isolates; peptide + Vancomycin, E. faecalis EFS012): 0.16
- FIC (bacterial isolates; peptide + Vancomycin, E. faecalis EFS013): 0.28
- FIC (bacterial isolates; peptide + Vancomycin, E. faecium EFM010): 0.56
- Peptide MIC + Tobramycin ([3]; P. aeruginosa PA022): 0.125 µg/mL
- Tobramycin MIC + Peptide ([3]; P. aeruginosa PA022): 4 µg/mL
- Peptide MIC Alone ([3]; P. aeruginosa PA022, Tobramycin section): 4 µg/mL
- Peptide MIC + Tobramycin ([3]; P. aeruginosa PA026): 0.125 µg/mL
- Tobramycin MIC + Peptide ([3]; P. aeruginosa PA026): 4 µg/mL
- Peptide MIC Alone ([3]; P. aeruginosa PA026, Tobramycin section): 16 µg/mL
- Peptide MIC + Tobramycin ([3]; P. aeruginosa PA030): 8 µg/mL
- Tobramycin MIC + Peptide ([3]; P. aeruginosa PA030): 0.25 µg/mL
- Peptide MIC Alone ([3]; P. aeruginosa PA030, Tobramycin section): 16 µg/mL
- Peptide MIC + Tobramycin ([3]; P. aeruginosa PA032): 32 µg/mL
- Tobramycin MIC + Peptide ([3]; P. aeruginosa PA032): 1 µg/mL
- Peptide MIC Alone ([3]; P. aeruginosa PA032, Tobramycin section): 64 µg/mL
- Ciprofloxacin MIC + Peptide ([3]; P. aeruginosa PA41): 1 µg/mL
- Peptide MIC + Ciprofloxacin ([3]; P. aeruginosa PA41): 4 µg/mL
- Peptide MIC Alone ([3]; P. aeruginosa PA41, Ciprofloxacin section): 16 µg/mL
- Ciprofloxacin MIC + Peptide ([3]; P. aeruginosa PA77): 1 µg/mL
- Peptide MIC + Ciprofloxacin ([3]; P. aeruginosa PA77): 16 µg/mL
- Peptide MIC Alone ([3]; P. aeruginosa PA77, Ciprofloxacin section): 32 µg/mL
- Peptide MIC ([3]; P. aeruginosa, combination with Ciprofloxacin): 16
- Peptide MIC ([3]; S. aureus, combination with Ciprofloxacin): 2
- Peptide MIC ([3]; S. aureus, combination with Mupirocin): 16
- Peptide MIC + Tobramycin ([3]; S. maltophilia SMA029): 32 µg/mL
- Tobramycin MIC + Peptide ([3]; S. maltophilia SMA029): 4 µg/mL
- Peptide MIC Alone ([3]; S. maltophilia SMA029, Tobramycin section): 128 µg/mL
- Peptide MIC + Tobramycin ([3]; S. maltophilia SMA030): 32 µg/mL
- Tobramycin MIC + Peptide ([3]; S. maltophilia SMA030): 4 µg/mL
- Peptide MIC Alone ([3]; S. maltophilia SMA030, Tobramycin section): >128 µg/mL

Source: US20020035061A1, “COMPOSITIONS AND METHODS FOR TREATING INFECTIONS USING CATIONIC PEPTIDES ALONE OR IN COMBINATION WITH ANTIBIOTICS” (priority 1996, published 2002)
